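Five concentrations, 48 hours, 96-well plates. GI50 = concentration required for 50% inhibition of growth.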 Calls of active or inactive are those of the source. No stated cut-off is given here; in the data, active = GI50 up to about 1.1 µM and inactive = higher.
Experiments:
Assay in all cases: NCI-60 cell line screen, 48 h
ACHN = tested on: ACHN
CCRF-CEM = tested on: CCRF-CEM
EKVX = tested on: EKVX
HCC 2998 = tested on: HCC 2998
HL-60 = tested on: HL-60
HT-29 = tested on: HT-29
KM12 = tested on: KM12
LOX IMVI = tested on: LOX IMVI
NCI-H226 = tested on: NCI-H226
NCI-H23 = tested on: NCI-H23
NCI-H460 = tested on: NCI-H460
NCI-H522 = tested on: NCI-H522
OVCAR-3 = tested on: OVCAR-3
RXF 393 = tested on: RXF 393
SF-268 = tested on: SF-268
SK-OV-3 = tested on: SK-OV-3
UACC-257 = tested on: UACC-257
UO-31 = tested on: UO-31
M14 = tested on: M14

Measured: GI50

Cc1nc(-n2nc(-c3ccccc3)cc2-c2ccccc2)sc1C(=O)/C=C/c1ccc(Cl)cc1
inactive: ACHN 20.7 µM | CCRF-CEM 17.3 µM | EKVX 13.4 µM | HCC 2998 16.4 µM | HL-60 14.5 µM | HT-29 14.4 µM | KM12 11.7 µM | LOX IMVI 13.9 µM | NCI-H226 16 µM | NCI-H23 16.3 µM | NCI-H460 25.2 µM | NCI-H522 11.7 µM | OVCAR-3 15.9 µM | RXF 393 12.7 µM | SF-268 29 µM | SK-OV-3 28.1 µM | UACC-257 20.1 µM | UO-31 9.06 µM

CCOC(=O)C(=O)C1C(=O)Nc2ccccc21 (configuration not stated)
inactive: ACHN > 100 µM | CCRF-CEM > 100 µM | EKVX > 100 µM | HCC 2998 > 100 µM | HL-60 > 100 µM | HT-29 > 100 µM | KM12 > 100 µM | LOX IMVI > 100 µM | M14 > 100 µM | NCI-H226 > 100 µM | NCI-H23 > 100 µM | NCI-H460 > 100 µM | OVCAR-3 > 100 µM | RXF 393 > 100 µM | SF-268 > 100 µM | UACC-257 > 100 µM | UO-31 > 100 µM

[N-]=[N+]=NC(c1cn(C2CC(O)C(CO)O2)c(=O)[nH]c1=O)C(I)I (configuration not stated)
inactive: ACHN > 100 µM | CCRF-CEM > 100 µM | EKVX > 100 µM | HCC 2998 > 100 µM | HL-60 > 100 µM | HT-29 > 100 µM | KM12 > 100 µM | LOX IMVI > 100 µM | M14 > 100 µM | NCI-H226 9.55 µM | NCI-H23 71 µM | NCI-H460 > 100 µM | OVCAR-3 > 100 µM | RXF 393 > 100 µM | SF-268 56.1 µM | SK-OV-3 > 100 µM | UACC-257 > 100 µM | UO-31 > 100 µM

C/C(=N\NC(=O)c1ccccc1O)C1=CNc2ccccc2S1
inactive: ACHN 4.56 µM | CCRF-CEM 3.35 µM | EKVX 15.3 µM | HCC 2998 2.98 µM | HL-60 3.54 µM | HT-29 7.85 µM | KM12 3.94 µM | LOX IMVI 3.3 µM | M14 6.65 µM | NCI-H226 4.35 µM | NCI-H23 3.6 µM | NCI-H460 4 µM | NCI-H522 3.34 µM | OVCAR-3 3.01 µM | SF-268 3.61 µM | SK-OV-3 15.6 µM | UACC-257 3.1 µM | UO-31 2.14 µM

Cn1ncc(=S)[nH]c1=S
inactive: ACHN > 100 µM | CCRF-CEM > 100 µM | EKVX > 100 µM | LOX IMVI > 100 µM | M14 > 100 µM | NCI-H226 > 100 µM | NCI-H23 > 100 µM | NCI-H460 > 100 µM | NCI-H522 > 100 µM | OVCAR-3 > 100 µM | RXF 393 > 100 µM | SF-268 > 100 µM | SK-OV-3 > 100 µM | UO-31 > 100 µM

CCCCCn1cnc2c1S(=O)(=O)N(C)C(NC(=O)c1ccccc1)=N2
inactive: ACHN > 100 µM | CCRF-CEM > 100 µM | EKVX > 100 µM | HCC 2998 > 100 µM | HL-60 > 100 µM | HT-29 > 100 µM | KM12 > 100 µM | LOX IMVI > 100 µM | NCI-H226 > 100 µM | NCI-H23 > 100 µM | NCI-H460 > 100 µM | NCI-H522 > 100 µM | OVCAR-3 > 100 µM | SF-268 > 100 µM | SK-OV-3 > 100 µM | UACC-257 > 100 µM | UO-31 > 100 µM

CN(C)C(=N)NC(N)=S
inactive: ACHN > 100 µM | EKVX > 100 µM | HCC 2998 > 100 µM | HL-60 > 100 µM | HT-29 > 100 µM | KM12 > 100 µM | LOX IMVI > 100 µM | M14 > 100 µM | NCI-H226 > 100 µM | NCI-H23 > 100 µM | NCI-H460 > 100 µM | NCI-H522 > 100 µM | OVCAR-3 > 100 µM | RXF 393 > 100 µM | SF-268 > 100 µM | SK-OV-3 > 100 µM | UACC-257 > 100 µM | UO-31 > 100 µM

COc1ccc(N2C(=O)c3c(c4[nH]c5ccccc5c4c4ccc(C(C)(C)C)cc34)C2=O)cc1
inactive: ACHN 46.3 µM | CCRF-CEM 21.3 µM | EKVX 64 µM | HCC 2998 > 100 µM | KM12 64.9 µM | LOX IMVI > 100 µM | M14 40.3 µM | NCI-H226 35.8 µM | NCI-H23 20 µM | NCI-H460 40.4 µM | NCI-H522 33.2 µM | OVCAR-3 27.2 µM | RXF 393 45.7 µM | SF-268 29.2 µM | SK-OV-3 42.1 µM | UACC-257 > 100 µM | UO-31 97.1 µM

CCOc1ccccc1NC(=O)CCc1n[nH]c(=S)o1
inactive: ACHN > 100 µM | CCRF-CEM > 100 µM | EKVX > 100 µM | HL-60 > 100 µM | HT-29 > 100 µM | KM12 > 100 µM | LOX IMVI > 100 µM | M14 > 100 µM | NCI-H226 > 100 µM | NCI-H23 > 100 µM | NCI-H522 > 100 µM | OVCAR-3 > 100 µM | SF-268 > 100 µM | SK-OV-3 > 100 µM | UACC-257 > 100 µM | UO-31 63.4 µM

Cc1cccc(-c2nnc(S)[nH]2)c1
inactive: ACHN > 100 µM | CCRF-CEM > 100 µM | EKVX > 100 µM | HCC 2998 > 100 µM | HL-60 > 100 µM | HT-29 > 100 µM | KM12 > 100 µM | M14 > 100 µM | NCI-H226 > 100 µM | NCI-H23 > 100 µM | NCI-H460 > 100 µM | NCI-H522 > 100 µM | OVCAR-3 > 100 µM | SF-268 > 100 µM | SK-OV-3 > 100 µM | UACC-257 > 100 µM | UO-31 > 100 µM

C=C1C(=O)O[C@H]2C1C[C@H](O)/C(C)=C/CC[C@@]1(C)O[C@H]21 (some centres not stated)
inactive: ACHN 8.38 µM | CCRF-CEM 3.04 µM | EKVX 19 µM | HCC 2998 14.4 µM | HT-29 23.3 µM | KM12 14.7 µM | LOX IMVI 9.29 µM | M14 10.4 µM | NCI-H23 19 µM | NCI-H460 > 10 µM | NCI-H522 1.69 µM | RXF 393 15 µM | SF-268 29.4 µM | SK-OV-3 36.5 µM | UACC-257 16.7 µM | UO-31 14.8 µM

C=CCOC1=C2CC[C@H](O)[C@@]2(C)CCC1=O
inactive: ACHN > 100 µM | CCRF-CEM > 100 µM | EKVX > 100 µM | HCC 2998 > 100 µM | HL-60 > 100 µM | HT-29 > 100 µM | KM12 > 100 µM | LOX IMVI > 100 µM | M14 > 100 µM | NCI-H226 > 100 µM | NCI-H460 > 100 µM | NCI-H522 > 100 µM | OVCAR-3 > 100 µM | RXF 393 > 100 µM | SF-268 > 100 µM | SK-OV-3 > 100 µM | UACC-257 > 100 µM | UO-31 > 100 µM

O=S1(=O)c2ccccc2N=C(c2ccccc2Cl)CC1c1ccc(F)cc1 (configuration not stated)
inactive: ACHN 18.4 µM | CCRF-CEM 14.1 µM | EKVX 18.1 µM | HCC 2998 14.2 µM | HL-60 14.5 µM | KM12 16.5 µM | LOX IMVI 16.7 µM | M14 19 µM | NCI-H23 17.1 µM | NCI-H460 18.5 µM | NCI-H522 13.6 µM | OVCAR-3 14.3 µM | RXF 393 6.68 µM | SF-268 22.1 µM | SK-OV-3 43.2 µM | UACC-257 11.9 µM | UO-31 15.2 µM

CC(=O)OCC1OC(n2c(=S)n(-c3ccccc3)c(=O)c3cc(Br)ccc32)C(OC(C)=O)C(OC(C)=O)C1OC(C)=O (configuration not stated)
inactive: ACHN > 100 µM | CCRF-CEM > 100 µM | EKVX > 100 µM | HCC 2998 > 100 µM | HL-60 > 100 µM | HT-29 > 100 µM | KM12 > 100 µM | LOX IMVI > 100 µM | M14 > 100 µM | NCI-H226 > 100 µM | NCI-H23 > 100 µM | NCI-H460 > 100 µM | NCI-H522 > 100 µM | OVCAR-3 > 100 µM | SF-268 > 100 µM | SK-OV-3 > 100 µM | UACC-257 > 100 µM | UO-31 > 100 µM

Cc1noc(C)c1C1=CCCCc2ccccc21
inactive: ACHN 87.9 µM | CCRF-CEM 78.9 µM | EKVX 63.4 µM | HCC 2998 > 100 µM | HL-60 21.7 µM | HT-29 > 100 µM | KM12 > 100 µM | M14 79.6 µM | NCI-H23 > 100 µM | NCI-H460 > 100 µM | NCI-H522 36.3 µM | OVCAR-3 79.4 µM | RXF 393 72.8 µM | SF-268 > 100 µM | SK-OV-3 > 100 µM | UACC-257 > 100 µM | UO-31 > 100 µM

CC1=Nn2c(nnc2-c2ccccc2Cl)NC(C)(C)C1
inactive: ACHN > 100 µM | CCRF-CEM 34.2 µM | EKVX > 100 µM | HCC 2998 > 100 µM | HL-60 50.9 µM | HT-29 > 100 µM | KM12 > 100 µM | LOX IMVI > 100 µM | M14 > 100 µM | NCI-H226 > 100 µM | NCI-H23 > 100 µM | NCI-H460 > 100 µM | NCI-H522 23.8 µM | SF-268 > 100 µM | SK-OV-3 > 100 µM | UO-31 > 100 µM
